BigSolDB 2.1

SMILES: Cl.c1ccc2c(CC3=NCCN3)cccc2c1
- solubility (mole fraction) (in 2-methoxyethanol, 278.15 K): 0.0132
- solubility (mole fraction) (in 2-methoxyethanol, 283.15 K): 0.0157
- solubility (mole fraction) (in 2-methoxyethanol, 288.15 K): 0.0184
- solubility (mole fraction) (in 2-methoxyethanol, 293.15 K): 0.0214
- solubility (mole fraction) (in 2-methoxyethanol, 298.15 K): 0.0246
- solubility (mole fraction) (in 2-methoxyethanol, 303.15 K): 0.0287
- solubility (mole fraction) (in 2-methoxyethanol, 308.15 K): 0.0329
- solubility (mole fraction) (in 2-methoxyethanol, 313.15 K): 0.0366
- solubility (mole fraction) (in 2-methoxyethanol, 318.15 K): 0.0419
- solubility (mole fraction) (in 2-methoxyethanol, 323.15 K): 0.0476
- solubility (mole fraction) (in ethanol, 278.15 K): 0.00313
- solubility (mole fraction) (in ethanol, 283.15 K): 0.00386
- solubility (mole fraction) (in ethanol, 288.15 K): 0.00457
- solubility (mole fraction) (in ethanol, 293.15 K): 0.00545
- solubility (mole fraction) (in ethanol, 298.15 K): 0.00639
- solubility (mole fraction) (in ethanol, 303.15 K): 0.0076
- solubility (mole fraction) (in ethanol, 308.15 K): 0.00893
- solubility (mole fraction) (in ethanol, 313.15 K): 0.0104
- solubility (mole fraction) (in ethanol, 318.15 K): 0.012
- solubility (mole fraction) (in ethanol, 323.15 K): 0.014
- solubility (mole fraction) (in isopropanol, 278.15 K): 0.000605
- solubility (mole fraction) (in isopropanol, 283.15 K): 0.000784
- solubility (mole fraction) (in isopropanol, 288.15 K): 0.00101
- solubility (mole fraction) (in isopropanol, 293.15 K): 0.0013
- solubility (mole fraction) (in isopropanol, 298.15 K): 0.00169
- solubility (mole fraction) (in isopropanol, 303.15 K): 0.00202
- solubility (mole fraction) (in isopropanol, 308.15 K): 0.00249
- solubility (mole fraction) (in isopropanol, 313.15 K): 0.00309
- solubility (mole fraction) (in isopropanol, 318.15 K): 0.00377
- solubility (mole fraction) (in isopropanol, 323.15 K): 0.00462
- solubility (mole fraction) (in methanol, 278.15 K): 0.011
- solubility (mole fraction) (in methanol, 283.15 K): 0.0137
- solubility (mole fraction) (in methanol, 288.15 K): 0.0164
- solubility (mole fraction) (in methanol, 293.15 K): 0.0198
- solubility (mole fraction) (in methanol, 298.15 K): 0.0243
- solubility (mole fraction) (in methanol, 303.15 K): 0.0287
- solubility (mole fraction) (in methanol, 308.15 K): 0.0337
- solubility (mole fraction) (in methanol, 313.15 K): 0.04
- solubility (mole fraction) (in methanol, 318.15 K): 0.0462
- solubility (mole fraction) (in methanol, 323.15 K): 0.0527
